In the supplement of paper PMC11616607:

Experiments:
Experiment in all cases: drug sensitivity score (DSS) from 5-point dose-response viability curve (DSS (area-under-curve based score)); higher = more sensitive (stronger growth inhibition or killing); extreme values may be limits of the assay
Conditions in all cases: exposure time: 72 h; concentration range: 5 concentrations over 10,000-fold range
OVCAR8 = tested on: OVCAR8
Method in brief: (§1)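 Ovarian cancer and normal ovarian cell lines were tested in 384-well plates, with drugs dispensed acoustically (Echo 550) in DMSO or water at five concentrations covering a 10,000-fold range. After 1,500 cells per well were added, plates were incubated for 3 days at 37°C and 5% CO2, and viability was read by CellTiter-Glo luminescence on a PHERAstar FS. Breeze software gave a drug sensitivity score for each cell line and drug, where a higher score means greater sensitivity. A value of zero means no response.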

Kuramochi = tested on: Kuramochi
Method in brief: as §1

OVCAR5 = tested on: OVCAR5
Method in brief: as §1

OV90 = tested on: OV90
Method in brief: as §1

Ovsaho = tested on: Ovsaho
Method in brief: as §1

CAOV3 = tested on: CAOV3
Method in brief: as §1

HOSE2C = tested on: HOSE2C
Method in brief: as §1

OVCAR4 = tested on: OVCAR4
Method in brief: as §1

COV318 = tested on: COV318
Method in brief: as §1

HOSE1C = tested on: HOSE1C
Method in brief: as §1

COV362 = tested on: COV362
Method in brief: as §1

JHOS2 = tested on: JHOS2
Method in brief: as §1

Compound | drug sensitivity score (OVCAR8) | drug sensitivity score (Kuramochi) | drug sensitivity score (OVCAR5) | drug sensitivity score (OV90) | drug sensitivity score (Ovsaho) | drug sensitivity score (CAOV3) | drug sensitivity score (HOSE2C) | drug sensitivity score (OVCAR4) | drug sensitivity score (COV318) | drug sensitivity score (HOSE1C) | drug sensitivity score (COV362) | drug sensitivity score (JHOS2)
CCC1(c2ccc(N)cc2)CCC(=O)NC1=O (configuration not stated) [Aminoglutethimide] | 0 | 0 | 0 | 0 | 0 | 0.2 | 0 | 0 | 0 | 0.2 | 0 | 0
COc1cccc(OCCCN)c1-c1cc(Nc2cnc(C#N)cn2)n[nH]1 [Prexasertib] | 30.1 | 19.8 | 25 | 16.7 | 16.1 | 24.8 | 36.7 | 21.8 | 22.9 | 40.9 | 16.8 | 22.4
Cc1nc(Nc2n[nH]c3c2CN(C(=O)N[C@H](CN(C)C)c2ccccc2)C3(C)C)c2sccc2n1 | 16.5 | 12.2 | 14.9 | 17 | 9 | 17.5 | 7.5 | 10.2 | 7.2 | 20.6 | 7.3 | 10.6
CC(C)(C)c1nc(-c2cccc(NS(=O)(=O)c3c(F)cccc3F)c2F)c(-c2ccnc(N)n2)s1 [Dabrafenib] | 0 | 0 | 0 | 17.9 | 0 | 0 | 0 | 0 | 0 | 0 | 0 | 1.5
COC(=O)N[C@@H](C)CNc1nccc(-c2cn(C(C)C)nc2-c2cc(Cl)cc(NS(C)(=O)=O)c2F)n1 [Encorafenib] | 0 | 0 | 0 | 5.6 | 0.1 | 0.3 | 0.5 | 0 | 0 | 0 | 0 | 0.1
O=C(/C=C/c1cccc(S(=O)(=O)Nc2ccccc2)c1)NO [Belinostat] | 18.2 | 10.2 | 17.2 | 13.5 | 11.7 | 13.6 | 18.1 | 8.6 | 9.1 | 23.4 | 7.3 | 10
C[C@@H]1COC(Nc2ccc3ncnc(Nc4ccc(OCc5nccs5)c(Cl)c4)c3c2)=N1 [Varlitinib] | 5.4 | 0.4 | 4.1 | 0 | 0.3 | 3.2 | 0.2 | 1.9 | 0 | 0.4 | 0 | 0
N[C@@H]1CCCN(c2c(/C=C3\SC(=O)NC3=O)cccc2-c2ccccc2)C1 [AZD1208] | 0.1 | 1.7 | 1.4 | 0.3 | 3.5 | 0 | 0 | 0 | 1.1 | 0.2 | 0 | 0.3
N#CCNC(=O)c1ccc(-c2ccnc(Nc3ccc(N4CCOCC4)cc3)n2)cc1 [Momelotinib] | 4.8 | 1 | 3.3 | 2.6 | 2.4 | 0.9 | 5.8 | 0 | 2.7 | 6.8 | 1 | 6.9
CC(=O)O[C@@]12CO[C@@H]1C[C@H](O)[C@@]1(C)C(=O)[C@H](O)C3=C(C)[C@@H](OC(=O)[C@H](O)[C@@H](NC(=O)OC(C)(C)C)c4ccccc4)C[C@@](O)([C@@H](OC(=O)c4ccccc4)[C@H]21)C3(C)C [Docetaxel] | 27.7 | 16 | 23.4 | 15.5 | 10.3 | 28.7 | 27.6 | 8.1 | 9.5 | 29.3 | 9.3 | 13.9
COc1cc(C)[nH]c(=O)c1CNC(=O)c1c(C)n([C@H](C)C2CCOCC2)c2ccccc12 [CPI-360] | 0 | 0 | 0.8 | 0.6 | 0 | 0 | 0 | 0 | 0 | 0 | 0 | 0.2
C#Cc1cccc(Nc2ncnc3cc4c(cc23)OCCOCCOCCO4)c1 [Icotinib] | 0 | 0.2 | 4.3 | 0 | 1.1 | 5.7 | 0 | 1.7 | 0.2 | 0 | 0 | 0.4
CNC(=O)c1cccc2cc(Oc3ccnc4cc(OCC5(N)CC5)c(OC)cc34)ccc12 [Lucitanib] | 2.3 | 0.1 | 1.6 | 1.1 | 0.8 | 0 | 5.9 | 2.4 | 2.3 | 1.5 | 0 | 0.4
O=C(O)C(=O)O.[NH-][C@@H]1CCCC[C@H]1[NH-].[Pt+2] [Oxaliplatin] | 6.8 | 6.8 | 11.4 | 6.9 | 9 | 11.8 | 6 | 8.5 | 5 | 10.7 | 0.2 | 7.8
C[C@@H](Oc1cc(-n2cnc3ccc(CN4CCN(C)CC4)cc32)sc1C(N)=O)c1ccccc1C(F)(F)F | 29.1 | 7.7 | 19.4 | 19.6 | 24.7 | 22.4 | 10.1 | 3.6 | 6.8 | 13.7 | 3.6 | 15.3
CCOc1cc2ncc(C#N)c(Nc3ccc(OCc4ccccn4)c(Cl)c3)c2cc1NC(=O)/C=C/CN(C)C [Neratinib] | 4.8 | 0.4 | 2.9 | 0 | 0 | 5.3 | 1 | 0.6 | 0 | 0 | 0 | 1.4

Compound | drug sensitivity score (OVCAR8) | drug sensitivity score (Kuramochi) | drug sensitivity score (OVCAR5) | drug sensitivity score (OV90) | drug sensitivity score (Ovsaho) | drug sensitivity score (CAOV3) | drug sensitivity score (HOSE2C) | drug sensitivity score (OVCAR4) | drug sensitivity score (COV318) | drug sensitivity score (HOSE1C) | drug sensitivity score (COV362) | drug sensitivity score (JHOS2)
CNC(=O)c1cc(COc2nnc(Nc3ccc(Cl)cc3)c3ccoc23)ccn1 [Telatinib] | 0 | 0.1 | 0 | 0 | 0 | 0 | 0 | 0 | 0.2 | 0 | 0 | 0
CC1(C)CCC(c2ccc(Cl)cc2)=C(CN2CCN(c3ccc(C(=O)NS(=O)(=O)c4ccc(N[C@H](CCN5CCOCC5)CSc5ccccc5)c(S(=O)(=O)C(F)(F)F)c4)cc3)CC2)C1 [Navitoclax] | 0 | 0 | 0.9 | 10.2 | 3 | 2.6 | 5.9 | 2 | 0 | 24.2 | 0 | 0
CC(=O)c1c(C)c2cnc(Nc3ccc(N4CCNCC4)cn3)nc2n(C2CCCC2)c1=O [Palbociclib] | 0.5 | 1.4 | 3.6 | 0.8 | 3 | 0.1 | 2.9 | 0.1 | 3.2 | 4.5 | 1 | 6.3
Cc1cc2c(F)c(Oc3ncnn4cc(OC[C@@H](C)O)c(C)c34)ccc2[nH]1 [Brivanib] | 0 | 0 | 0 | 0 | 0 | 0 | 0 | 0 | 0 | 0 | 0 | 0
COc1cc(Nc2c(C#N)cnc3cc(OCCCN4CCN(C)CC4)c(OC)cc23)c(Cl)cc1Cl [Bosutinib] | 6.7 | 8.8 | 9.4 | 8.7 | 10.5 | 8 | 6.2 | 5.7 | 2 | 6.8 | 8.5 | 7
COc1ccc(Cn2ccc3ccc(C(=O)NO)cc32)cc1 | 3.7 | 1.2 | 0.7 | 1.8 | 2.6 | 1.1 | 1.5 | 3.6 | 0 | 2.5 | 0 | 0.1
Clc1ccccc1C(c1ccccc1)(c1ccccc1)n1cccn1 [TRAM-34] | 0 | 0 | 5 | 0 | 0 | 0 | 0 | 0 | 0 | 0 | 0 | 0
C[C@@]1(C(=O)Nc2ccc(F)nc2)CCCN1c1nc(Nc2cc(C3CC3)n[nH]2)c2cccn2n1 | 5.2 | 4.8 | 14.4 | 7.4 | 7.5 | 20.2 | 18.7 | 7.2 | 3.1 | 8.9 | 6.5 | 3.3
Nc1cccc2c1CN(C1CCC(=O)NC1=O)C2=O (configuration not stated) [Lenalidomide] | 0 | 0.2 | 0 | 0 | 0 | 0 | 0 | 0 | 0 | 0 | 0 | 0.1
COc1cc2c(Oc3ccc(NC(=O)C4(C(=O)Nc5ccc(F)cc5)CC4)cc3F)ccnc2cc1OCCCN1CCOCC1 [Foretinib] | 1 | 2.7 | 5.3 | 3.8 | 1.9 | 6.9 | 4.5 | 3.2 | 1.3 | 1.9 | 1.2 | 0.5
O=C(c1cc(Cc2n[nH]c(=O)c3ccccc23)ccc1F)N1CCN(C(=O)C2CC2)CC1 [Olaparib] | 4.9 | 3.4 | 2 | 5.4 | 2.1 | 4.7 | 2.5 | 1.9 | 2.9 | 0.8 | 0.3 | 4.6
COc1cc(CCc2cc(NC(=O)c3ccc(N4CC(C)NC(C)C4)cc3)n[nH]2)cc(OC)c1 (configuration not stated) [AZD4547] | 0 | 0 | 0 | 0 | 0 | 0 | 5.8 | 0 | 0 | 0.8 | 0 | 0
CC(C)(C)c1cnc(CSc2cnc(NC(=O)C3CCNCC3)s2)o1 [SNS-032] | 20 | 15.8 | 18.5 | 16.1 | 18.9 | 16.2 | 12.1 | 13.9 | 11 | 21.2 | 13.9 | 23.3
CCCN(CCC)C(=O)C1=Cc2ccc(-c3ccc(C(=O)N4CCCC4)cc3)cc2N=C(N)C1 [Motolimod] | 0.8 | 0.3 | 0.5 | 1.9 | 0 | 0 | 0 | 0.9 | 2.3 | 0 | 0 | 1.8
Cn1nccc1Nc1nccc(-c2ccn([C@H](CO)c3ccc(Cl)c(F)c3)c(=O)c2)n1 [Ravoxertinib] | 6.9 | 4.8 | 8.8 | 13.6 | 4.7 | 6 | 0 | 0.8 | 0 | 0 | 0.2 | 3.7
